Test results reported in patent US4224326A, “Immunosuppressive agents” (Eli Lilly and Company, priority 1978, dated 1980).
Read-outs that look alike come from different tables or passages of the source.

Tests used:
GVH reaction = assay: Graft-versus-host (GVH) reaction, spleen weight; assay type: in vivo, mouse (C57BL spleen cells into C57BL×C3H F1 hybrid)
Procedure: In this test, parental (C57BL) mouse spleen cells are injected into mice of an F1 hybrid strain (C57BL×C3H). […] As a consequence, the recipient's spleen becomes enlarged. Immunosuppression prevents or reduces this enlargement. Thus, spleen weights provide a measure of the GVH reaction and its reduction under immunosuppression. A modification of Simonsen's original procedure (Ann. N.Y. Acad. Sci. 73:834, 1958) was employed. Large crops of spleen cells were obtained, without the generally employed manual teasing of spleens, by using Waring blendors with the cutting blades reversed. Two six-second blending periods buffeted the spleens (batches of 25 C57BL spleens in 25-ml saline) sufficiently to free the cells from the connective tissue. The latter was removed by filtration through several thicknesses of cheesecloth. Cell suspensions prepared in this fashion were standardized, by means of Levy-Hausser chamber counts, to contain 6×10^8 nucleated cells per ml. Groups of ten 16-18 gram C57BL×C3H mice were injected intraperitoneally with 1 ml of the donor cell suspension. Treatment, by the oral or subcutaneous route in 0.2 ml, was instituted 3 days prior to cell injection and continued daily for 13 days. Control animals received only cells and vehicle. The spleens were removed and weighed 10 days following cell injection. The results were expressed as mg spleen/gram body weight. Since the injection of syngeneic, i.e., C57BL×C3H, cells into the recipient mice produces a minor degree of splenomegaly, spleen weights of such animals were used to define 100% suppression of the GVH component in calculating percents of inhibition produced by the immunosuppressive compounds.

[1] = system: antibody (hemagglutinin) production against sheep red blood cells; assay: Mouse hemagglutinin assay, oral administration (antibody reduction); assay type: in vivo, mouse (male, random-bred, Swiss); details: Erythrocyte, nine daily doses, pooled sera of 5 mice, read-out: minimum effective dose (MED), lowest dose producing 75 percent or greater antibody reduction
Procedure: (§1) Groups of five 20-gram, male, random-bred, Swiss mice received intravenous injections of 5×10^7 sheep red blood cells. The cells for these injections were prepared from lamb's blood (collected in Alsever's solution) by washing three times with 0.85 percent saline and resuspending in 0.85 percent saline. Nine daily doses of each compound to be tested, solubilized in polyethylene glycol 400, were administered orally in 0.1 ml. doses, commencing three days prior to red blood cell injection. Several dose levels of each compound were employed, at 2-fold increments. A control group of mice, receiving a red blood cell injection and nine daily doses of vehicle instead of drug, was included. Six days after the antigen injections, the mice were bled by cardiac puncture and the sera from each 5-mouse group pooled. The serum pools, following complement inactivation, were assayed for hemagglutinin content by standard procedures, utilizing a mixture of serial 2-fold saline dilutions of the test sera with 0.5 percent sheep red blood cell suspensions in plastic depression trays. Following incubation of the trays for 3 hours at 37° C., the hemagglutination patterns were graded.

[2] = system: antibody (hemagglutinin) titer against sheep red blood cells; assay: Individual serum assay procedure (hemagglutinin titer); assay type: in vivo; details: Erythrocyte, ten daily doses, 10-mouse groups, read-out: Endpoint Dose (p <0.05), lowest dose significantly lowering antibody titer
Procedure: as §1, with “graded. […] The mice were bled as before, but the sera were titered individually rather than as a pool. Mean hemagglutinin values (log2)±S.E. were calculated for each 10-mouse group and p values (by Student's t Test), in comparison with the control group, were determined. […] The drugs were administered orally or subcutaneously in ten daily doses, commencing three days prior to red blood cell injection. Drugs were suspended in a vehicle composed of saline containing 0.125 percent methylcellulose and 0.2 percent nonionic emulsifying agent. Antibody (hemagglutinin) determinations were made seven days following a red blood cell injection.” for “graded.”

[3] = system: adjuvant-induced arthritis (uninjected hind paw swelling, bone damage); assay: Adjuvant-induced arthritis test in rats; assay type: in vivo, rat (male Lewis-Wistar); details: 30 mg/kg/day oral; for % inhibition (uninjected paw volume): printed under Day 18, formula in footnote drawing
[4] = Day 11, TB control 2.02 ± 0.037
[5] = Day 14, TB control 2.69 ± 0.106
[6] = Day 16, TB control 3.26 ± 0.202
[7] = Day 18, TB control 3.65 ± 0.227

Structure (SMILES): COc1ccc2nc(NC(=O)Nc3ccccc3)sc2c1 [1-(6-methoxy-2-benzothiazolyl)-3-phenylurea, reference compound]
- Percent Inhibition (GVH reaction; 12.5 mg/kg × 13, oral, illustrative calculation with Syn. Control 5.20): 74%
- Mg Spleen/g Body Wt. ± S.E. (GVH reaction; 12.5 mg/kg × 13, oral, p<0.01 vs GVH control (11.55 ± 1.01), groups of 5 mice): 6.86 ± 0.80 mg spleen/g body wt

Structure (SMILES): Brc1ccc(C2Nc3cccc4cccc(c34)N2)cc1 [2,3-dihydro-2-(p-bromophenyl)-1H-perimidine]
- minimal effective dose [1]: 25 mg/kg

Structure (SMILES): Brc1ccc(C2=Nc3cccc4cccc(c34)N2)cc1Br.Cl [2-(3,4-dibromophenyl)-1H-perimidine hydrochloride]
- minimal effective dose [1]: 50 mg/kg

Structure (SMILES): Cl.Clc1ccc(C2=Nc3cccc4cccc(c34)N2)cc1Cl [2-(3,4-dichlorophenyl)-1H-perimidine hydrochloride]
- minimal effective dose ([2]; sc, subcutaneous): < 3.1 mg/kg
- minimal effective dose ([2]; oral): < 3.1 mg/kg
- minimal effective dose [1]: 12.5 mg/kg

Structure (SMILES): Cl.Clc1ccc(C2=Nc3cccc4cccc(c34)N2)cc1Br [2-(3-bromo-4-chlorophenyl)-1H-perimidine hydrochloride]
- minimal effective dose [1]: 50 mg/kg

Structure (SMILES): Cl.Clc1cc(C2=Nc3cccc4cccc(c34)N2)ccc1Br [2-(4-bromo-3-chlorophenyl)-1H-perimidine hydrochloride]
- minimal effective dose [1]: 50 mg/kg

Structure (SMILES): Brc1cccc(C2=Nc3cccc4cccc(c34)N2)c1.Cl [2-(m-bromophenyl)-1H-perimidine hydrochloride]
- minimal effective dose [1]: 100 mg/kg

Structure (SMILES): Cl.FC(F)(F)c1cccc(C2=Nc3cccc4cccc(c34)N2)c1 [2-(m-trifluoromethylphenyl)-1H-perimidine hydrochloride]
- minimal effective dose [1]: 100 mg/kg

Structure (SMILES): Cl.FC(F)(F)C(F)(F)Oc1ccc(C2=Nc3cccc4cccc(c34)N2)cc1 [2-(p-PENTAFLUOROETHOXYPHENYL)-1H-PERIMIDINE HYDROCHLORIDE]
- minimal effective dose [1]: 100 mg/kg

Structure (SMILES): F.FC(F)(F)Oc1ccc(C2=Nc3cccc4cccc(c34)N2)cc1 [2-(p-TRIFLUOROMETHOXYPHENYL)-1H-PERIMIDINE HYDROFLUORIDE]
- minimal effective dose ([2]; oral): 12.5 mg/kg
- minimal effective dose [1]: < 100 mg/kg

Structure (SMILES): Cl.FC(F)(F)c1ccc(C2=Nc3cccc4cccc(c34)N2)cc1 [2-(p-TRIFLUOROMETHYLPHENYL)-1H-PERIMIDINE HYDROCHLORIDE]
- minimal effective dose ([2]; sc, subcutaneous): < 1.6 mg/kg
- minimal effective dose ([2]; oral): < 1.6 mg/kg
- Uninjected Paw Volume ([3]; Day 9, TB control 1.94 ± 0.028): 1.93 ± 0.081
- Uninjected Paw Volume [3, 4]: 1.95 ± 0.079
- Uninjected Paw Volume [3, 5]: 2.13 ± 0.148
- Uninjected Paw Volume [3, 6]: 2.35 ± 0.233
- Uninjected Paw Volume [3, 7]: 2.53 ± 0.39
- Gross observation of X-ray photos, bone damage in injected and uninjected paws ([3]; day 18, bone damage very obvious in TB control): no bone damage
- % inhibition (uninjected paw volume) [3]: 69%
- Percent Inhibition, GVH Series (GVH reaction; 1.6 mg/kg × 13, oral): 78%
- Mg Spleen/g mouse weight (mean + S.E.) (GVH reaction; 1.6 mg/kg × 13, oral, p <0.05, control 8.64 ± 1.10): 5.66 ± 0.33 mg spleen/g mouse weight
- Percent Inhibition, GVH Series (GVH reaction; 3.1 mg/kg × 13, oral): 96%
- Mg Spleen/g mouse weight (mean + S.E.) (GVH reaction; 3.1 mg/kg × 13, oral, p <0.01, control 8.64 ± 1.10): 4.96 ± 0.31 mg spleen/g mouse weight
- Percent Inhibition, GVH Series (GVH reaction; 6.2 mg/kg × 13, oral): 77%
- Mg Spleen/g mouse weight (mean + S.E.) (GVH reaction; 6.2 mg/kg × 13, oral, p <0.05, control 8.64 ± 1.10): 5.67 ± 0.51 mg spleen/g mouse weight
- Percent Inhibition, GVH Series (GVH reaction; 12.5 mg/kg × 13, oral): 53%
- Mg Spleen/g mouse weight (mean + S.E.) (GVH reaction; 12.5 mg/kg × 13, oral, control 8.64 ± 1.10): 6.62 ± 1.17 mg spleen/g mouse weight
- Percent Inhibition, GVH Series (GVH reaction; 25 mg/kg × 13, oral): 101%
- Mg Spleen/g mouse weight (mean + S.E.) (GVH reaction; 25 mg/kg × 13, oral, p <0.005, control 8.64 ± 1.10): 4.75 ± 0.42 mg spleen/g mouse weight
- minimal effective dose [1]: 6.25 mg/kg

Structure (SMILES): Cl.FC(F)(F)Sc1ccc(C2=Nc3cccc4cccc(c34)N2)cc1 [2-(p-TRIFLUOROMETHYLTHIOPHENYL)-1H-PERIMIDINE HYDROCHLORIDE]
- minimal effective dose ([2]; oral): 50 mg/kg
- minimal effective dose [1]: < 100 mg/kg

Structure (SMILES): Brc1ccc(C2=Nc3cccc4cccc(c34)N2)cc1.Cl [2-(p-bromophenyl)-1H-perimidine hydrochloride]
- minimal effective dose ([2]; sc, subcutaneous): < 3.1 mg/kg
- minimal effective dose ([2]; oral): 25 mg/kg
- minimal effective dose [1]: 12.5 mg/kg

Structure (SMILES): Brc1ccc(C2=Nc3cccc4cccc(c34)N2)cc1 [2-(p-bromophenyl)-1H-perimidine]
- Percent Inhibition, GVH Series (GVH reaction; 3.1 mg/kg × 13, subcutaneous): 19%
- Mg Spleen/g mouse weight (mean + S.E.) (GVH reaction; 3.1 mg/kg × 13, subcutaneous, control 8.84 ± 0.72): 8.08 ± 0.66 mg spleen/g mouse weight
- Percent Inhibition, GVH Series (GVH reaction; 6.2 mg/kg × 13, subcutaneous): 66%
- Mg Spleen/g mouse weight (mean + S.E.) (GVH reaction; 6.2 mg/kg × 13, subcutaneous, p <0.01, control 8.84 ± 0.72): 6.18 ± 0.39 mg spleen/g mouse weight
- Percent Inhibition, GVH Series (GVH reaction; 12.5 mg/kg × 13, subcutaneous): 79%
- Mg Spleen/g mouse weight (mean + S.E.) (GVH reaction; 12.5 mg/kg × 13, subcutaneous, p <0.005, control 8.84 ± 0.72): 5.64 ± 0.65 mg spleen/g mouse weight
- Percent Inhibition, GVH Series (GVH reaction; 25 mg/kg × 13, subcutaneous): 84%
- Mg Spleen/g mouse weight (mean + S.E.) (GVH reaction; 25 mg/kg × 13, subcutaneous, p <0.001, control 8.84 ± 0.72): 5.43 ± 0.41 mg spleen/g mouse weight
- Percent Inhibition, GVH Series (GVH reaction; 50 mg/kg × 13, subcutaneous): 102%
- Mg Spleen/g mouse weight (mean + S.E.) (GVH reaction; 50 mg/kg × 13, subcutaneous, p <0.001, control 8.84 ± 0.72): 4.70 ± 0.21 mg spleen/g mouse weight
- minimal effective dose [1]: 25 mg/kg

Structure (SMILES): Clc1ccc(C2=Nc3cccc4cccc(c34)N2)cc1 [2-(p-chlorophenyl)-1H-perimidine]
- minimal effective dose [1]: 100 mg/kg

Structure (SMILES): Cn1cnc([N+](=O)[O-])c1Sc1ncnc2nc[nH]c12 [Azathioprine, reference compound]
- minimal effective dose [1]: 100 mg/kg

Structure (SMILES): CC(C(=O)O)c1cccc(Oc2ccccc2)c1 (stereo not shown) [fenoprofen, reference compound]
- Uninjected Paw Volume ([3]; Day 9, TB control 1.94 ± 0.028): 1.97 ± 0.023
- Uninjected Paw Volume [3, 4]: 2.11 ± 0.07
- Uninjected Paw Volume [3, 5]: 2.38 ± 0.099
- Uninjected Paw Volume [3, 6]: 2.7 ± 0.107
- Uninjected Paw Volume [3, 7]: 2.67 ± 0.128
- % inhibition (uninjected paw volume) [3]: 23%
